Measurements published in patent US10052346B2, “Treatment of myelodysplastic syndromes with 2-O and,or 3-O desulfated heparinoids” (Cantex Pharmaceuticals, Inc., priority 2015, dated 2018).
“Also recorded” adds a separate entry of the source.

Experiments:
[1] = test system: advanced pancreatic cancer; conditions: dalteparin added to gemcitabine; cited from earlier work
ovarian cancer = conditions: with standard chemotherapy regimen; cited from earlier work
[2] = test system: advanced prostate, lung, or pancreatic cancer; conditions: added to existing standard of care protocols; cited from earlier work
[3] = stability testing of CX-01 infusion solutions; format: physicochemical; conditions: room temperature; diluted in 0.9% sodium chloride
Protocol: Based upon current stability testing data, CX-01 infusion solutions expire at room temperature 72 hours after preparation and should be stored in a refrigerator (2 to 8° C.) until used.

bone marrow = test: serial bone marrow biopsies in the AML trial; format: in vivo, human; conditions: one patient treated with ODSH, cytarabine and idarubicin; for bone marrow biopsy appearance at Day 14 of the induction cycle: FIG. 2B; for bone marrow biopsy appearance at Day 28: FIG. 2C
From the text: Bone marrow biopsies were obtained in the AML, trial described in Example 1.
FIGS. 2A-2C are photomicrographs of biopsies from one of the patients.

[4] = clotting time in an aPTT assay after administration to a subject; format: in vivo; conditions: ODSH at a dose equivalent in weight to a fully-anticoagulating dose of unfractionated heparin; UFH at fully anticoagulant dose; normal about 27 to 35 seconds
From the text: In contrast to unfractionated heparin, ODSH is substantially non-anticoagulating: administered to a subject at a dose that is equivalent in weight to a fully-anticoagulating dose of unfractionated heparin, the clotting time measured in an aPTT assay is no greater than 45 seconds, and typically in the upper range of normal, where normal clotting time ranges from about 27 to 35 seconds. By comparison, unfractionated heparin administered to a subject at a fully anticoagulant dose causes time to clot to range from about 60 to about 85 seconds in an aPTT assay.

[5] = test system: acute myeloid leukemia (AML); test: single arm open-label clinical study of ODSH with idarubicin + cytarabine induction (NCT02056782); format: in vivo, human
Protocol: A single arm open-label clinical study was conducted at multiple trial sites (University of Utah, Georgia Regents University, and Medical University of South Carolina) in patients with newly diagnosed acute myeloid leukemia (AML) to confirm that ODSH could accelerate platelet and white blood cell (WBC) recovery in patients receiving induction chemotherapy with a regimen known to have myelosuppressive side effects.
All patients received the following standard (“7+3”) induction regimen, • Idarubicin (12 mg/m^2/day) by short intravenous infusion on Days 1, 2, and 3; and • Cytarabine (100 mg/m^2) as a continuous intravenous infusion over 24 hours (Days 1 through 7).
All patients also received CX-01, a substantially 2-O, 3-O-desulfated heparin derivative (ODSH) as an intravenous bolus immediately after the idarubicin dose on Day 1, at a dose of 4 mg/kg, followed by a continuous intravenous infusion at a dose of 0.25 mg/kg/hr for a total of 7 days (Days 1 through 7).
Twelve patients were enrolled. The median age was 56 (range 22-74). Based on cytogenetic, molecular, or antecedent hematologic disorder, 9 of 12 patients fell into the intermediate or poor risk categories. […] Complete remission at the end of the induction cycle was assessed using International Working Group (IWG) criteria (see, e.g., Cheson et al., J. Clin. Oncol. 21:4642 (2003)).
Platelet, neutrophil, and WBC recovery of the ODSH-treated AML patients was compared with the recovery in historical control patients receiving identical doses of idarubicin and cytarabine as induction therapy in a previous clinical study comparing idarubicin and daunorubicin in combination with cytarabine (Vogler et al., J. Clin. Oncol. 10(7):1103-11(1992)). In the previous study, 101 patients received idarubicin 12 mg/m^2 on days 1, 2, and 3 and cytarabine 100 mg/m^2 on days 1-7. Growth factors were not administered to any patient.

[6] = test system: metastatic adenocarcinoma of the pancreas; conditions: cited from earlier work
anti-thrombin III = anti-thrombin III (Homo sapiens, UniProt P01008); test: affinity for anti-thrombin III; format: binding; conditions: for Kd: measured as described in Rao et al.; for Kd for anti-thrombin III: same Kd as mass concentration
Chain of anti-thrombin III (P01008 33-464, species assumed): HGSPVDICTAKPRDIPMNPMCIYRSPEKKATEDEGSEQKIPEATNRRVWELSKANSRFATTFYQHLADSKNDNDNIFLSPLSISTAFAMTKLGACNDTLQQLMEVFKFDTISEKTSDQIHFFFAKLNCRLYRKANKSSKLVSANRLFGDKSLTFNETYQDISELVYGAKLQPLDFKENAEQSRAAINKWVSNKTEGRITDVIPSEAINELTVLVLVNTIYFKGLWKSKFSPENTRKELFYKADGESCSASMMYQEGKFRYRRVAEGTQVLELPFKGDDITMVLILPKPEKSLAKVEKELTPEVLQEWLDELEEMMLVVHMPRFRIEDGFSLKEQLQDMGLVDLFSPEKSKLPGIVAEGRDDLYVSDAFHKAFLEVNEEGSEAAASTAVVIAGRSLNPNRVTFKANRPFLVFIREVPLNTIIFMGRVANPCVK

human pancreatic cancer = conditions: regimen that includes gemcitabine; cited from earlier work
[7] = comparator heparin; Rao et al.; cited from earlier work
Xa = target: T1, Xa (Homo sapiens, UniProt P00742); conditions: comparator heparin; Rao et al.; cited from earlier work
T1 construct: an assay carried out using plasma treated with Russell viper venom; from tissue; host or cells: plasma
T1 sequence (P01008 33-464 partner): as the sequence (P01008 33-464, species assumed) above
T1 sequence (P00742 235-488 limits assumed): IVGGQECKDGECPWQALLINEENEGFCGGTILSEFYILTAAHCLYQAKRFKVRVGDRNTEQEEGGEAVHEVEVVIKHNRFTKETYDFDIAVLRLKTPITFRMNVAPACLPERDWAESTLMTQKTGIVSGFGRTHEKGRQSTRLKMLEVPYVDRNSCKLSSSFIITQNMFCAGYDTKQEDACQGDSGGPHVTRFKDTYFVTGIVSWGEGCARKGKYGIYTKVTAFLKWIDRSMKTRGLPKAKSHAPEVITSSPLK

IIa = IIa (Homo sapiens, UniProt P00734+P01008); conditions: comparator heparin; Rao et al.; cited from earlier work
pancreatic cancer model = conditions: in vivo; cited from earlier work
[8] = median follow-up of 14.2 months
[9] = ODSH added to gemcitabine plus nab-paclitaxel

In the case of dalteparin, the survival [1] is listed as “no statistically significant improvement in survival” and the outcome (ovarian cancer) is listed as “could not be shown to improve outcome”.

In the case of nadroparin, the survival benefit [2] is listed as “no statistically significant survival benefit”.

For “substantially 2-O, 3-O desulfated heparin [ODSH]”, the “expiry of infusion solutions after preparation” value [3] was 72 h, the “bone marrow biopsy appearance at Day 14 of the induction cycle” value (bone marrow) was “elimination of most normal bone marrow cells as well as leukemia cells” and the “bone marrow biopsy appearance at Day 14 of the induction cycle” value (bone marrow; listed as CX-01 ODSH) was “significant depletion of normal bone marrow cells”. The “bone marrow biopsy appearance at Day 28” value (bone marrow) was “no evidence of leukemic cells and restoration of normal bone marrow appearance and function”, the “bone marrow biopsy appearance at Day 28” value (bone marrow; listed as CX-01 ODSH) was “no evidence of leukemia and restoration of normal bone marrow appearance and function” and the “clotting time measured in an aPTT assay” value [4] was at most 45 s. The “patients remaining in complete remission” value ([5]; 5-13 months after having been enrolled in the study) was 10 of the 12, the “patients with primary AML achieving complete remission at the end of a single induction cycle” value ([5]; 11 patients with primary AML) was 11 and the “myelosuppressive side effects of the idarubicin+cytarabine regimen” value ([5]; AML patients) was “significantly attenuated the myelosuppressive side effects”. For the same substance, the “Complete response with first induction cycle (morphologic complete remission, IWG criteria)” value ([5]; AML patients, n = 12, 11 out of 12) was 92%, the “median OS” value [5, 8] was at least 13.6 months and the “median event free survival” value [5, 8] was 13.5 months. The “median time to relapse” value ([5]; six patients who relapsed) was 8 months, the overall survival [6, 9] was “did not provide a statistically significant increase; also recorded: no statistically significant benefit” and the progression-free survival [6, 9] was “did not provide a statistically significant increase; also recorded: no statistically significant benefit”. The “myelosuppressive side effects of the gemcitabine plus nab-paclitaxel regimen” value ([6]; U.S. Pat. No. 8,734,804) was “attenuate the myelosuppressive side effects”, the Kd (anti-thrombin III) was about 339 µM and the “Kd for anti-thrombin III” value (anti-thrombin III) was about 4000 µg/mL. For the same substance, the “efficacy of chemotherapy regimen in animal model” value (human pancreatic cancer) was “improves the efficacy of a chemotherapy regimen; also recorded: sensitize cancer cells to chemotherapy”.

In the case of unfractionated heparin, the “anticoagulant activity in the USP anticoagulant assay” value [7] is given as 165-190 U/mg, the anti-Xa activity (Xa) is given as 165-190 U/mg and the anti-IIa activity (IIa) is given as 165-190 U/mg. The potency of gemcitabine (pancreatic cancer model) was “enhances potency of gemcitabine”, the Kd (anti-thrombin III) was 1.56 µM and the “Kd for anti-thrombin III” value (anti-thrombin III) was 22 µg/mL.
